From a melting point compilation (Tetko et al.; mined from patent text by program, amines drawn as free bases though some values may be those of a salt)

First: OCc1nnc2n1-c1ccc(Cl)cc1C(c1ccccc1)=NC2
Second: Clc1ccc(-c2cc(-c3ccccc3)c(-c3ccccc3)s2)cc1
The melting point of the first is higher: 204 to 206 °C for the first, 115 to 117 °C for the second.

Compared with `O=C(O)c1ccc(C(F)(F)F)c(N2CCOCC2)n1`, `CCC(NS(=O)(=O)c1ccc(N2CCOCC2)cc1)C(=O)O` (stereo not given) is higher in melting point: 116 to 117 °C for the first, 163 to 165 °C for the second.

First: Oc1ccc(-c2nn(C3CCC3)c3c(C(F)(F)F)cccc23)c(O)c1
Second: Cc1ccc(NC(=O)NCc2ccc3c(c2)CN(C2CCC(=O)NC2=O)C3=O)cc1C(F)(F)F (stereo not given)
The melting point of the first is lower: 124 to 125 °C for the first, 273 to 275 °C for the second.

First: CCN(CC)C(=O)c1ccc(C)c(-c2nc(SC)nc3c2CNC(=O)N3c2c(F)cccc2F)c1
Second: CCN1c2ncc(COc3ccc(F)cc3)cc2C(=O)N(C)c2ccc(Cl)nc21
The melting point of the first is lower: 127 to 129 °C for the first, 143 to 144 °C for the second.

`O=C(C=Cc1ccccc1)C(Cc1ccccc1)(Cc1ccccc1)C(=O)C=Cc1ccccc1` and `O=C(Nc1ccc(C(=O)N2Cc3ccccc3Nc3ccccc32)c(Cl)c1)c1ccccc1-c1ccccc1` cannot be ordered by melting point: 182 to 183 °C for the first, 158 to 184 °C for the second.

First: C[C@@H](O)CCN1CCC(c2noc3cc(F)ccc23)CC1
Second: CC(C)N1CCC(CNc2ccc(Cl)cc2C(=O)Nc2ccc(F)cn2)CC1
The melting point of the first is higher: 82 to 84 °C for the first, 72 to 74 °C for the second.

First: Clc1ccc(-c2cnccn2)cc1Cl
Second: CCOC(=O)c1cnc2c(-c3cccc(Cl)c3)cnn2c1Cl
The melting point of the first is lower: 118 to 119 °C for the first, 140 to 141 °C for the second.

Compared with `COc1c(C)cc(-c2cc(-c3ccc(S(C)(=O)=O)cc3)c(N3CCOCC3)s2)nc1C`, `CNc1nc(-c2cccc(-c3ccc(C)c(C)c3)c2)c2cc(OC)c(OC)cc2n1` is lower in melting point: 152 °C for the first, 149 to 151 °C for the second.

First: O=C(O)CC(NS(=O)(=O)c1c(Cl)cc(Cl)cc1Cl)c1ccccc1 (stereo not given)
Second: O=c1[nH]c2cc(Cl)cc(Cl)c2c(O)c1Sc1ccc(OCc2ccccc2)cc1
The melting point of the first is lower: 218 to 219 °C for the first, 224 to 227 °C for the second.

Compared with `CCCCCCCCc1ccc(C(=O)C(O)c2ccccc2)cc1` (stereo not given), `O=C(CCCc1ccccc1)N[C@H](Cc1cccc(C(F)(F)F)c1)[C@@H](O)c1ccc(F)cc1` (racemic) is higher in melting point: 65 to 70 °C for the first, 110 to 111 °C for the second.

First: CC1(C)CC(=O)C(c2c(Cl)cc([N+](=O)[O-])cc2Cl)C(=O)C1
Second: COc1c([N+](=O)[O-])cc(Br)c2c1C(=O)CC2
The melting point of the first is higher: 288 to 290 °C for the first, 138 to 139 °C for the second.

First: CNc1ncc2c(-c3cccc(Cl)c3)cc(-c3ccc(C(=O)O)cc3)c(O)c2n1
Second: CNC(=O)c1ccc(-c2ccc(OC)c(-c3cccc([N+](=O)[O-])c3)c2)cc1
The melting point of the first is higher: 291 to 296 °C for the first, 171 to 172 °C for the second.

First: CCCCSCC(=O)c1cc2c(cc1Cl)n(C)c(=O)n2C
Second: CCOC(=O)C(C)(C)n1c(=O)[nH]c2ccc(C)cc2c1=O
The melting point of the first is lower: 66 to 68 °C for the first, 156 to 157 °C for the second.

First: N#CCC(C#N)S(=O)(=O)c1ccc(Cl)cc1 (stereo not given)
Second: C=CCS(=O)(=O)c1ccc(NN=C(C)C)cc1
The melting point of the first is higher: 130 to 137 °C for the first, 105 to 108 °C for the second.

First: O=S(=O)(c1ccc2ccccc2c1)N1CCOc2ccc(CCCI)cc21
Second: Oc1cccc(Cc2ccc3ccccc3c2O)c1
The melting point of the first is lower: 87 to 88 °C for the first, 100 to 101 °C for the second.

First: CCC1(c2cccc(O)c2)CNCC(C)O1 (stereo not given)
Second: CCCC(=O)c1cnc2c(C)cccc2c1Nc1ccccc1OC
The melting point of the first is lower: 75 to 105 °C for the first, 135 to 137 °C for the second.

First: CN(CCOc1ccc(CC(Cl)C(N)=O)cc1)c1nc2ccccc2o1 (stereo not given)
Second: NS(=O)(=O)c1nc2ccc(OC(=O)Cc3ccc(Cl)cc3)cc2s1
The melting point of the first is lower: 149 to 151 °C for the first, 206 to 208 °C for the second.

First: Cc1cc(C(O)(C(F)(F)F)C(F)(F)F)cc(C)c1S
Second: COC(=O)c1cc2ccc(S)cc2nc1OC
The melting point of the first is lower: 62 to 64 °C for the first, 103 to 105 °C for the second.

First: COC(CC(=O)c1ccc(Br)cc1)C(=O)c1ccc(Br)cc1 (stereo not given)
Second: O=C(C1=C(c2ccccc2)c2ccccc2S1=O)c1ccc(O)cc1 (stereo not given)
The melting point of the first is higher: 153 to 154 °C for the first, 140 to 145 °C for the second.

First: Cc1nc(N2CCN(Cc3ccc(Cl)cc3)C2=O)sc1C(N)=O
Second: COC(=O)c1cccc(COc2cc(Cl)cnc2N)c1
The melting point of the first is higher: over 200 °C for the first, 148 to 150 °C for the second.

First: Cc1cccc(-c2[nH]c(C(C)C)nc2-c2ccc(F)c(-c3c[nH]nn3)c2)n1
Second: Cc1c(-c2ccnc(-c3ccc4c(n3)CCCC4)n2)ccc2ccccc12
The melting point of the first is higher: 233 to 235 °C for the first, 156 to 158 °C for the second.

First: COc1cc(N)c(Cl)cc1C(=O)NCC1CCN(CCCOc2ccccc2)CC1
Second: CCOc1cc(N)c(Cl)cc1C(=O)NC1CCN(CC2CCN(C(=O)CCOC)CC2)CC1
The melting point of the first is lower: 132 to 134 °C for the first, 175 to 177 °C for the second.

Compared with `COc1cccc(CNC(=O)c2nc3scc(CCOc4ccc(C(=O)O)cc4)c3c(=O)[nH]2)c1`, `O=C(NCc1cc[nH]c(=O)c1)c1nc2ccc(F)c(OCc3ccc(F)cc3)c2c(=O)[nH]1` is higher in melting point: 237 to 241 °C for the first, 248 to 250 °C for the second.

First: O=C(NC1CC1)c1ccccc1SSc1ccccc1C(=O)NC1CC1
Second: O=C(NCCCn1cnc2cnc3ccccc3c21)c1ccccc1
The melting point of the first is higher: 257 to 259 °C for the first, 188 to 190 °C for the second.

First: COc1ccc(-c2nnc(N3CCC(O)CC3)nc2-c2ccc(OC)cc2)cc1
Second: C#CCOc1nc(-c2ccc(OC)cc2)n(-c2ccc(OC)cc2)n1
The melting point of the first is higher: 105 to 108 °C for the first, 81 to 82 °C for the second.

First: COc1ccc(S(=O)(=O)N2C(=O)C(c3cc(C)ccc3OC)(N3C[C@H](O)C[C@H]3C(=O)N(C)C)c3cc(Cl)ccc32)c(OC(F)(F)F)c1 (stereo not given in full)
Second: COc1cccc(Oc2c(NS(=O)(=O)c3ccc(C(C)(C)C)cc3)nc(C(=O)Nc3ccccc3)nc2OCCO)c1
The melting point of the first is higher: 192 to 193 °C for the first, 143 °C for the second.

First: O=C1c2ccccc2C2(CCCC2)C(=O)N1CCO
Second: CC(=O)N1CCN(CCOC2c3ccccc3C(=O)N2c2ccc3ccc(Cl)nc3n2)CC1 (stereo not given)
The melting point of the first is lower: 76 to 77 °C for the first, 172 °C for the second.

Compared with `COc1ccc([C@@H]2c3ccccc3C[C@@H]3CC(=O)N(C)CCN32)cc1` (racemic), `COc1ccc(S(=O)(=O)Nc2ccccc2Nc2ccccn2)cc1` is lower in melting point: 170 to 172 °C for the first, 113 to 116 °C for the second.

First: N#Cc1cccnc1N1CCN(CC(=O)Nc2cccc([N+](=O)[O-])c2)CC1
Second: CC(=O)Nc1ccc(C2=NNC(=O)CC2)cc1[N+](=O)[O-]
The melting point of the first is lower: 143 to 145 °C for the first, 223 °C for the second.

Compared with `CC(C)c1c(S(=O)(=O)c2ccc(O)cc2)cnn1C`, `CN(C)S(=O)(=O)n1cc(-c2ccc(Cl)cc2Cl)nc1C(N)=S` is lower in melting point: 209 to 210 °C for the first, 184 to 187 °C for the second.

First: Cc1ccc(S(=O)(=O)N2CCC(c3cccc4c3CCCC(C(=O)Nc3ccc(CN(C)C5CCOCC5)cc3)=C4)CC2)cc1
Second: O=C(NC(Cc1ccc(OCc2ccccc2)cc1)C(=O)O)c1cc2cc(-c3ccc(Cl)cc3)ccc2[nH]c1=O (stereo not given)
The melting point of the first is lower: 175 to 176 °C for the first, 298 to 299 °C for the second.

Compared with `O=C(c1ccco1)c1cnn2c1NCCC2`, `COC(=O)c1cccc(-c2ccnc3c(C(=O)c4cccs4)cnn23)c1` is higher in melting point: 138 to 139 °C for the first, 180 to 184 °C for the second.

Compared with `CNC(=NCCS(=O)Cc1[nH]cnc1C)NC#N` (stereo not given), `CCOC(=O)c1ncc2[nH]c3ccc(N)cc3c2n1` is higher in melting point: 185 to 186 °C for the first, 256 to 258 °C for the second.

First: Cc1cc(C)cc(C(=O)c2c(C(C)C)c(=O)[nH]c(=O)n2Cc2cc(C)nc(N3C(=O)c4ccccc4C3=O)c2)c1
Second: O=C1Nc2cc(Cl)ccc2Oc2ccccc21
The melting point of the first is higher: 310 to 311 °C for the first, 250 to 255 °C for the second.

Compared with `Nc1cc(C2=NOC(c3cc(Cl)cc(Cl)c3)(C(F)(F)F)C2)ccc1-n1cncn1` (stereo not given), `N=c1[nH]c2ccc(Cl)cc2c2nc(-c3ccc(Br)o3)nn12` is higher in melting point: 244 to 246 °C for the first, 282 to 283 °C for the second.

First: COC(=O)c1ccc(OCCCCl)cc1
Second: CCCCNC(=O)OC1c2ncccc2C(=O)N1c1ccc2ccc(Cl)nc2n1 (stereo not given)
The melting point of the first is lower: 56.5 to 59 °C for the first, 215 °C for the second.

First: COc1cccc2c1OC(C(C)C)C2=O (stereo not given)
Second: COc1cc2c(cc1OC)N(N)C(=O)C(C(=O)OC(C)(C)C)C2 (stereo not given)
The melting point of the first is lower: 46 to 47 °C for the first, 155 to 157 °C for the second.

Compared with `CN(C)c1nc2cc(N)ccn2n1`, `CC(C)(O)C#Cc1ccc2[nH]ccc2c1` is lower in melting point: 236 to 238 °C for the first, 119 to 123 °C for the second.

Compared with `OCC1OC(n2cnc3c(NC4CCCCC4)nc(Cl)nc32)CC1O` (stereo not given), `C#Cc1cn(C2CC(O)C(CO)O2)c(=O)[nH]c1=O` (stereo not given) is higher in melting point: 160 to 162 °C for the first, 175 °C for the second.

First: CCCCNC(=O)C(C)(C)N=NC(C)(C)C(=O)NCCCC
Second: CC(=O)OCC(C)(CC(C)(C)C)C(=O)O (stereo not given)
The melting point of the first is lower: 65 °C for the first, 89.5 to 90.5 °C for the second.

First: COC(=O)c1c(NC(C)=O)sc2c1CCC(C(C)(C)C)C2 (stereo not given)
Second: COC(=O)CCCCC1C(C(=O)OC)=C(C)NC(C)=C1C(=O)OC
The melting point of the first is higher: 117 to 118 °C for the first, 80 to 81 °C for the second.

First: O=C(O)C(CC1CCCC1)c1ccc(Cl)c(Cl)c1 (stereo not given)
Second: O=C1CCCN1[C@@H]1c2cc(Cl)ccc2OCC[C@H]1O (relative stereo)
The melting point of the first is lower: 74.5 to 76.9 °C for the first, 186 to 188 °C for the second.

Compared with `O=[N+]([O-])c1cnccc1NCc1ccc(F)cc1`, `Nc1nc(-c2ccc(CCNC(=O)C(F)(F)F)cc2)cs1` is higher in melting point: 137 °C for the first, 180 to 182 °C for the second.

First: Cc1ccc(-n2c(-c3cccc4ccccc34)ccc2-c2cccc3ccccc23)cc1
Second: CCc1ccc2c3c(ccc(C=O)c13)-c1ccccc1-2
The melting point of the first is lower: 105 to 106 °C for the first, 114 to 116 °C for the second.

`CCCCCCCCCCCCCCCCCC(=O)c1cc(C(=O)OCC)ccc1O` and `CCOC(=O)CC(=O)N=C(SC)N(C)N=Cc1ccccc1` cannot be ordered by melting point: 74 °C for the first, 74 to 75 °C for the second.

First: COCC(=O)Nc1cc(C(N)=O)cc(NC(=O)COC)c1Cl
Second: COCCOCC(=O)N1CCC(Oc2cc3ncnc(Nc4cccc(Cl)c4F)c3cc2OC)CC1
The melting point of the first is higher: 208 to 209 °C for the first, 110 to 111 °C for the second.

First: C=CCc1cc2c(c(CC=C)c1O)N(CC=C(C)C)C(=O)CC2
Second: O=C1CCCc2ncc(Cl)cc21
The melting point of the first is higher: 94 to 96 °C for the first, 84 to 86 °C for the second.

Compared with `Cc1cc(F)c([N+](=O)[O-])cc1[N+](=O)[O-]`, `CCOC(=O)CCCN1CCC2(CC1)CN(c1ccc(C#N)cc1)C(=O)O2` is higher in melting point: 76 °C for the first, 78 to 80 °C for the second.

Compared with `COC1OC2OC3(C)CCC4C(C)CCC(C1C)C24OO3` (stereo not given), `O=C(O)CC1(S)C2CC3CC(C2)CC1C3` (stereo not given) is higher in melting point: 73 to 74.5 °C for the first, 178 to 180 °C for the second.

First: OCc1ccc2c(c1)ncn2-c1cccc(COCc2ccccn2)c1
Second: O=C(Nc1n[nH]c(=S)s1)NC(Cc1ccccc1)C(=O)NCc1ccccc1 (stereo not given)
The melting point of the first is lower: 101 to 103 °C for the first, 167 to 170 °C for the second.
